Results as given in patent US6946447B2, “MDM2-specific antisense oligonucleotides” (Hybridon, Inc., priority 1997, dated 2005).

Assays:
[1] = system: MDM2; conditions: SJSA and JAR cells; cited from earlier work
[2] = system: human colon cancer LS174T xenografts; test: Tumor growth in nude mice bearing LS174T xenografts
[3] = system: SJSA xenografts; test: Tumor growth in nude mice bearing SJSA xenografts; format: in vivo; conditions: SJSA xenografts (average 150 mg), ip, 5 doses/week
Procedure: 51:173-182, 1996). […] The control group received physiological saline only.
Tumor growth was monitored using the methods previously reported (74,75). Tumor weight (g) was calculated by the formula, ½·a·b^2, where “a” is the long diameter (cm) and “b” is the short diameter (cm) of the tumor. At the end of the experiment, tumors were removed, weighed, and then fixed for pathology evaluation.

[4] = system: human colon cancer DLD-1 xenografts; test: Tumor growth in nude mice bearing DLD-1 xenografts; format: in vivo
[5] = system: DLD-1 cells; test: DLD-1 cell growth by trypan blue viability staining; format: cell-based, human; conditions: 72-hr treatment, Lipofectin, read-out: IC50, inhibition of tumor cell growth
Description: (§1) Chemicals and Reagents. Cell culture media and phosphate-buffered saline (PBS) were obtained from Sigma Chemical Co. (St. Louis, Mo.). Fetal bovine serum (FBS), antibodies against p53 and p21, Lipofectin, trypsin, penicillin-streptomycin, and trypan blue stain were purchased from GIBCO-BRL (Grand Island, N.Y.). The anti-human-MDM2 monoclonal antibody (Chen L. et al., Proc Natl Acad Sci USA, 95: 195-200, 1998; Chen L. et al., Mol. Med. 5: 21-34, 1999) was kindly provided by J. Chen (Moffitt Cancer Center, Tampa, Fla.). Chemotherapeutic agents adriamycin and 5-fluorouracil (5-FU) were obtained from Sigma. […] The MDM2, p53 and p21 levels in cultured cells were analyzed by using the methods described previously (earlier (Chen L. et al., Proc Natl Acad Sci USA, 95: 195-200, 1998; Chen L. et al., Mol. Med. 5: 21-34, 1999; Wang H. et al., Int J. Oncol. 15: 653-660, 1999). In brief, cell lysate containing identical amounts of total protein were fractionated by SDS-PAGE and transferred to Bio-Rad Trans-Blot nitrocellulose membranes (Bio-Rad Laboratories, Hercules, Calif., USA). The nitrocellulose membrane was then incubated with blocking buffer (PBS containing 0.1% Tween 20 and 5% non-fat milk) for 1 hr at room temperature and washed with the washing buffer (PBS containing 0. […]

[6] = system: MDM2, p53 and p21 protein levels in LS174T cells; test: Western blot of MDM2, p53 and p21 in LS174T cells; format: cell-based, human; conditions: 24 hr, Lipofectin
[7] = system: MDM2, p53 and p21 protein levels in DLD-1 cells; test: Western blot of MDM2, p53 and p21 in DLD-1 cells; format: cell-based, human; conditions: for inhibitory effect on MDM2 expression: Lipofectin
Description: (§2) Chemicals and Reagents. Cell culture media and phosphate-buffered saline (PBS) were obtained from Sigma Chemical Co. (St. Louis, Mo.). Fetal bovine serum (FBS), antibodies against p53 and p21, Lipofectin, trypsin, penicillin-streptomycin, and trypan blue stain were purchased from GIBCO-BRL (Grand Island, N.Y.). The anti-human-MDM2 monoclonal antibody (Chen L. et al., Proc Natl Acad Sci USA, 95: 195-200, 1998; Chen L. et al., Mol. Med. 5: 21-34, 1999) was kindly provided by J. Chen (Moffitt Cancer Center, Tampa, Fla.). Chemotherapeutic agents adriamycin and 5-fluorouracil (5-FU) were obtained from Sigma. Natural product topoisomerase I inhibitor 10-hydroxycamptothecin (HCPT) was obtained from the Midwest Co. (Beijing, China) with the purity of the drug being greater than 98% (Zhang R. et al., Cancer Chemother Pharm 41: 257-267, 1998). Cell Culture. The tumor cell lines, LS174T and DLD-1 were obtained from the American Type Culture Collection (Rockville, Md.) and cultured according to their instructions. LS 174T cells were cultured in MEM with 0.1 mM nonessential amino acids and Earle's balanced salt solution containing 10% FBS and DLD-1 cells in RPMI 1640 medium containing 10% FBS. All media included 1% penicillin/streptomycin. […] Cells were incubated with Oligos AS or ASM at various concentrations for 72 hr, in the presence of Lipofectin (7 μg/ml). […] Western Blot Analysis. The MDM2, p53 and p21 levels in cultured cells were analyzed by using the methods described previously (earlier (Chen L. et al., Proc Natl Acad Sci USA, 95: 195-200, 1998; Chen L. et al., Mol. Med. 5: 21-34, 1999; Wang H. et al., Int J. Oncol. 15: 653-660, 1999). In brief, cell lysate containing identical amounts of total protein were fractionated by SDS-PAGE and transferred to Bio-Rad Trans-Blot nitrocellulose membranes (Bio-Rad Laboratories, Hercules, Calif., USA). The nitrocellulose membrane was then incubated with blocking buffer (PBS containing 0.1% Tween 20 and 5% non-fat milk) for 1 hr at room temperature and washed with the washing buffer (PBS containing 0. 1% Tween 20) for 5 min twice. The membrane was incubated with primary (anti-MDM2, anti-p53, or anti-p21) antibody overnight at 4° C. or for 1 hr at room temperature with gentle shaking. The membrane was washed with the washing buffer for 15 min and then twice for 5 min, and then incubated with 1:5000 diluted goat anti-mouse IgG-horse radish peroxidase conjugated antibody (Bio-Rad, Hercules, Calif.) for 1 hr at room temperature. After washing as described above the protein of interest was detected by ECL reagents from Amersham (Arlington Height, Ill.). Results. LS174T Model. In vitro inhibition of MDM2 expression by Oligo AS was shown in a sequence-specific, increasing dose-dependent manner (FIG. 19). […] Control oligonucleotide, Oligo ASM had no effect on MDM2, p53 or p21 protein levels at 500 nM, the highest concentration tested in the study.
Following in vitro combination treatment of Oligos and chemotherapeutic agents HCPT, adriamycin, and 5-FU, the protein levels of MDM2, p53 and p21 were determined in DLD-1 cells. Cells were incubated with 200 nM Oligo in the presence of Lipofectin for 24 hr, followed by addition of various concentrations of chemotherapeutic agents and incubation for an additional 24 hr.

[8] = system: MDM2, p53 and p21 protein levels in LS174T cells; test: Western blot of MDM2, p53 and p21 in LS174T cells; format: cell-based, human; conditions: 400 nM Oligo 24 hr
Description: as §2
Following in vitro combination treatment of Oligos and chemotherapeutic agents HCPT, adriamycin, and 5-FU, the protein levels of MDM2, p53 and p21 were determined in LS174T cells. Cells were incubated with 400 nM Oligo in the presence of Lipofectin for 24 hr, followed by addition of various concentrations of chemotherapeutic agents and incubation for additional 24 hr.

[9] = system: LS174T cells; test: LS174T cell growth by trypan blue viability staining; format: cell-based, human; conditions: 72 hr, Lipofectin 7 μg/ml, read-out: IC50, inhibition of tumor cell growth
Description: as §1

[10] = day 3, oligo 20, HCPT 3, 5-FU 10 mg/kg/day
[11] = day 6, oligo 20, HCPT 3, 5-FU 10 mg/kg/day
[12] = day 9, oligo 20, HCPT 3, 5-FU 10 mg/kg/day
[13] = day 12, oligo 20, HCPT 3, 5-FU 10 mg/kg/day
[14] = day 15, oligo 20, HCPT 3, 5-FU 10 mg/kg/day

Substance: Oligo AS: 20-mer mixed-backbone phosphorothioate oligonucleotide with 2′-O-methyl ends, 5′UGACACCTGTTCTCACUCAC-3′; SEQ ID NO:47 (mixed phosphorothioate backbone with 2'-O-methyl ends, pattern not given here)
- MDM2 expression [1]: specifically inhibits MDM2 expression
- xenograft pathology (tumor histology) [2]: patches of collagenous connective tissues replacing tumor and necropurulent, ulcerative changes
- effect on in vivo tumor growth ([2]; daily ip dose 20 mg/kg): significant inhibitory effect
- Ratio (%) of % T:C with oligo to % T:C without oligo ([2]/[1] or [3]/[1]) ([2]; day 3): 51%
- Growth ratio % T:C (mean tumor mass of treated group vs saline control) [2, 10]: 50.9%
- Ratio (%) of % T:C with oligo to % T:C without oligo ([2]/[1] or [3]/[1]) ([2]; day 6): 44%
- Growth ratio % T:C (mean tumor mass of treated group vs saline control) [2, 11]: 44.1%
- Ratio (%) of % T:C with oligo to % T:C without oligo ([2]/[1] or [3]/[1]) ([2]; day 9): 30%
- Growth ratio % T:C (mean tumor mass of treated group vs saline control) [2, 12]: 29.9%
- Ratio (%) of % T:C with oligo to % T:C without oligo ([2]/[1] or [3]/[1]) ([2]; day 12): 34%
- Growth ratio % T:C (mean tumor mass of treated group vs saline control) [2, 13]: 34.3%
- Ratio (%) of % T:C with oligo to % T:C without oligo ([2]/[1] or [3]/[1]) ([2]; day 15): 45%
- Growth ratio % T:C (mean tumor mass of treated group vs saline control) [2, 14]: 45.2%
- Ratio (%) of % T:C with oligo to % T:C without oligo ([2]/[1] or [3]/[1]) ([2]; day 18): 37%
- Growth ratio % T:C (mean tumor mass of treated group vs saline control) ([2]; day 18 (end of experiment), oligo 20, HCPT 3, 5-FU 10 mg/kg/day): 37.3%
- effect on tumor growth [3]: dose-dependent effect
- xenograft pathology (tumor histology) [4]: histologically similar to control tumors except for modest increases in connective tissue with necrotic changes in tumor tissues
- effect on in vivo tumor growth ([4]; 1 mg/kg/day): minimal effects
- effect on in vivo tumor growth ([4]; daily ip doses 1, 10, 20 mg/kg): dose-dependent response
- Ratio (%) of % T:C with oligo to % T:C without oligo ([2]/[1] or [3]/[1]) ([4]; day 3): 77%
- Growth ratio % T:C [4, 10]: 77.3%
- Ratio (%) of % T:C with oligo to % T:C without oligo ([2]/[1] or [3]/[1]) ([4]; day 6): 72%
- Growth ratio % T:C [4, 11]: 72.0%
- Ratio (%) of % T:C with oligo to % T:C without oligo ([2]/[1] or [3]/[1]) ([4]; day 9): 59%
- Growth ratio % T:C [4, 12]: 59.2%
- Ratio (%) of % T:C with oligo to % T:C without oligo ([2]/[1] or [3]/[1]) ([4]; day 12): 41%
- Growth ratio % T:C [4, 13]: 41.2%
- Ratio (%) of % T:C with oligo to % T:C without oligo ([2]/[1] or [3]/[1]) ([4]; day 15): 44%
- Growth ratio % T:C [4, 14]: 44.4%
- Ratio (%) of % T:C with oligo to % T:C without oligo ([2]/[1] or [3]/[1]) ([4]; day 18): 47%
- Growth ratio % T:C ([4]; day 18, oligo 20, HCPT 3, 5-FU 10 mg/kg/day): 46.7%
- Ratio (%) of % T:C with oligo to % T:C without oligo ([2]/[1] or [3]/[1]) ([4]; day 21): 37%
- Growth ratio % T:C ([4]; day 21 (end of experiment), oligo 20, HCPT 3, 5-FU 10 mg/kg/day): 36.8%
- IC50 [5]: 140 nM
- inhibition of MDM2 expression ([6]; 500 nM): greater than 90%
- effect on MDM2, p53 and p21 protein levels ([6]; up to 500 nM): p53 and p21 levels elevated accordingly
- protein levels of the mutant p53 [7]: No significant changes
- MDM2, p53 and p21 protein levels, oligo pre-treatment then 5-FU ([7]; 200 nM Oligo 24 hr, then 5-FU 24 hr): MDM2 expression was inhibited, and p21 slightly induced
- MDM2 and p21 protein levels, oligo pre-treatment then HCPT ([7]; 200 nM Oligo 24 hr, then HCPT 24 hr): MDM2 expression was inhibited, resulting in significant elevated p21 levels
- MDM2 and p21 protein levels, oligo pre-treatment then adriamycin ([7]; 200 nM Oligo 24 hr, then adriamycin 24 hr): MDM2 expression was inhibited, resulting in significant elevated p21 levels
- inhibitory effect on MDM2 expression ([7]; 200 nM, 24 hr): > 95%
- p21 levels ([7]; 100 nm or higher): elevated
- inhibitory effect on MDM2 expression ([7]; 500 and 1000 nM): approximately 80%
- MDM2, p53 and p21 protein levels, oligo pre-treatment then 5-FU ([8]; then 5-FU 24 hr): MDM2 expression was inhibited, resulting in significant elevated p53 and p21 levels
- MDM2, p53 and p21 protein levels, oligo pre-treatment then HCPT ([8]; then HCPT 24 hr): MDM2 expression was inhibited, resulting in significant elevated p53 and p21 levels
- MDM2, p53 and p21 protein levels, oligo pre-treatment then adriamycin ([8]; then adriamycin 24 hr): MDM2 expression was inhibited, resulting in significant elevated p53 and p21 levels
- IC50 [9]: 323 nM
